Source: ChEMBL document CHEMBL1201862, “PubChem BioAssay data set” (2004)
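Method: 48-hour compound exposure of cells in 96-well plates, five concentrations, linear interpolation of endpoints. GI50: concentration for 50% inhibition of growth.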 The source made the active and inactive calls. No stated cut-off is given here; in the data, active = GI50 up to about 1.1 µM and inactive = higher.

How the values were obtained:
Assay in all cases: growth of human tumour cells (NCI), 48 h
A498 = test system: A498
ACHN = test system: ACHN
CAKI-1 = test system: CAKI-1
DU-145 = test system: DU-145
HCC 2998 = test system: HCC 2998
HOP-62 = test system: HOP-62
Hs-578T = test system: Hs-578T
MCF7 = test system: MCF7
MDA-MB-231 = test system: MDA-MB-231
Malme-3M = test system: Malme-3M
NCI-H460 = test system: NCI-H460
NCI-H522 = test system: NCI-H522
NCI/ADR-RES = test system: NCI/ADR-RES
OVCAR-3 = test system: OVCAR-3
SF-268 = test system: SF-268
SK-MEL-5 = test system: SK-MEL-5
SN12C = test system: SN12C
T47D = test system: T47D
U-251 = test system: U-251

Structure (SMILES) | GI50 (A498) | GI50 (ACHN) | GI50 (CAKI-1) | GI50 (DU-145) | GI50 (HCC 2998) | GI50 (HOP-62) | GI50 (Hs-578T) | GI50 (MCF7) | GI50 (MDA-MB-231) | GI50 (Malme-3M) | GI50 (NCI-H460) | GI50 (NCI-H522) | GI50 (NCI/ADR-RES) | GI50 (OVCAR-3) | GI50 (SF-268) | GI50 (SK-MEL-5) | GI50 (SN12C) | GI50 (T47D) | GI50 (U-251)
CC(=O)O[C@H]1C(=O)[C@@]2(C)[C@H]([C@H](OC(=O)c3ccccc3)[C@]3(O)C[C@H](OC(=O)[C@H](O)[C@@H](NC(=O)OC(C)(C)C)c4ccco4)C(C)=C1C3(C)C)[C@]1(OC(C)=O)CO[C@@H]1C[C@@H]2O | 2.47 µM (inactive) | 8.2 µM (inactive) | 0.00802 µM (active) | < 0.005 µM (active) | < 0.005 µM (active) | 0.00804 µM (active) | < 0.005 µM (active) | < 0.005 µM (active) | < 0.005 µM (active) | 6.61 µM (inactive) | < 0.005 µM (active) | < 0.005 µM (active) | 0.0185 µM (active) | 0.00769 µM (active) | < 0.005 µM (active) | < 0.005 µM (active) | < 0.005 µM (active) | 0.264 µM (active) | 0.00661 µM (active)
O=C1NCN(c2ccccc2)C12CCN(CC1COc3ccccc3O1)CC2 (stereo not given) [SPIROXATRINE] | 71.6 µM (inactive) | 84.1 µM (inactive) | 39.8 µM (inactive) | 77.4 µM (inactive) | > 100 µM (inactive) | 22.5 µM (inactive) | 23.5 µM (inactive) | > 100 µM (inactive) | 59.7 µM (inactive) | 40.6 µM (inactive) | > 100 µM (inactive) | 91.8 µM (inactive) | 47.5 µM (inactive) | 28.6 µM (inactive) | 65.2 µM (inactive) | > 100 µM (inactive) | > 100 µM (inactive) | 54 µM (inactive) | 31.3 µM (inactive)
Cc1cc(N(CCCl)CCCl)ccc1/C=N/NC(=O)Cc1cc(=O)oc2cc(O)ccc12 | 13.7 µM (inactive) | 6.67 µM (inactive) | 6.4 µM (inactive) | 18.5 µM (inactive) | 28.2 µM (inactive) | 19 µM (inactive) | 17.2 µM (inactive) | 5.83 µM (inactive) | 30.6 µM (inactive) | 12.6 µM (inactive) | 8.93 µM (inactive) | 13.7 µM (inactive) | 37.6 µM (inactive) | 21.3 µM (inactive) | 10.2 µM (inactive) | 8.51 µM (inactive) | 16 µM (inactive) | 6.85 µM (inactive) | 14.2 µM (inactive)
C[C@]12CC[C@H]3[C@@H](CCC4=CC(=O)CC[C@@]43C)[C@@H]1CC[C@@H]2C(=O)Nc1ccc([N+](=O)[O-])c(C(F)(F)F)c1 | 17.6 µM (inactive) | 18.7 µM (inactive) | 18.7 µM (inactive) | 20.7 µM (inactive) | 12.9 µM (inactive) | 29 µM (inactive) | 18.2 µM (inactive) | 16.3 µM (inactive) | 17.1 µM (inactive) | 15.6 µM (inactive) | 17.3 µM (inactive) | 17.2 µM (inactive) | 13.3 µM (inactive) | 22.8 µM (inactive) | 21.4 µM (inactive) | 14.3 µM (inactive) | 23.4 µM (inactive) | 15.6 µM (inactive) | 17.1 µM (inactive)
CN(C)CCCNC(CC#N)CCC#N (stereo not given) | > 10 µM (inactive) | > 10 µM (inactive) | > 10 µM (inactive) | > 10 µM (inactive) | > 10 µM (inactive) | > 10 µM (inactive) | > 10 µM (inactive) | > 10 µM (inactive) | > 10 µM (inactive) | > 10 µM (inactive) | > 10 µM (inactive) | > 10 µM (inactive) | > 10 µM (inactive) | > 10 µM (inactive) | > 10 µM (inactive) | > 10 µM (inactive) | > 10 µM (inactive) | > 10 µM (inactive) | > 10 µM (inactive)
CC(CC[C@@]1(O)OC2C[C@H]3[C@@H]4CC[C@H]5CC(OC6OC(CO)C(OC7OC(CO)C(O)C(OC8OCC(O)C(O)C8O)C7OC7OC(CO)C(O)C(O)C7O)C(O)C6O)[C@H](O)CC5(C)[C@H]4CCC3(C)C2[C@@H]1C)COC1OC(CO)C(O)C(O)C1O (stereo not given in full) | 18.9 µM (inactive) | 2.09 µM (inactive) | 4.76 µM (inactive) | 3.09 µM (inactive) | 13.8 µM (inactive) | 4.15 µM (inactive) | 4.73 µM (inactive) | 8.71 µM (inactive) | 25.9 µM (inactive) | 15.2 µM (inactive) | 2.09 µM (inactive) | 2.87 µM (inactive) | 6.65 µM (inactive) | 3.46 µM (inactive) | 2.48 µM (inactive) | 6.9 µM (inactive) | 2.35 µM (inactive) | 12.2 µM (inactive) | 15.5 µM (inactive)
CCOC(=O)N/N=C(/OCC)c1ccccc1 | > 100 µM (inactive) | > 100 µM (inactive) | > 100 µM (inactive) | > 100 µM (inactive) | > 100 µM (inactive) | > 100 µM (inactive) | > 100 µM (inactive) | > 100 µM (inactive) | > 100 µM (inactive) | > 100 µM (inactive) | > 100 µM (inactive) | > 100 µM (inactive) | > 100 µM (inactive) | > 100 µM (inactive) | > 100 µM (inactive) | > 100 µM (inactive) | > 100 µM (inactive) | > 100 µM (inactive) | > 100 µM (inactive)
NC(=O)c1nnc2c(F)cccc2c1N | > 100 µM (inactive) | > 100 µM (inactive) | > 100 µM (inactive) | > 100 µM (inactive) | 93.1 µM (inactive) | > 100 µM (inactive) | > 100 µM (inactive) | 40 µM (inactive) | > 100 µM (inactive) | > 100 µM (inactive) | 72.1 µM (inactive) | 21.9 µM (inactive) | > 100 µM (inactive) | > 100 µM (inactive) | > 100 µM (inactive) | > 100 µM (inactive) | > 100 µM (inactive) | > 100 µM (inactive) | > 100 µM (inactive)
CC(C)CCNC(=O)c1ccc(CNC(=O)/C=C/c2cccc(Oc3ccccc3)c2)cc1 | 30.8 µM (inactive) | 48.4 µM (inactive) | 47.1 µM (inactive) | 70.3 µM (inactive) | 26.9 µM (inactive) | 18.7 µM (inactive) | > 100 µM (inactive) | 36.5 µM (inactive) | 24.1 µM (inactive) | > 100 µM (inactive) | 34.3 µM (inactive) | 52.5 µM (inactive) | 37.2 µM (inactive) | 28.4 µM (inactive) | 37.3 µM (inactive) | 51.2 µM (inactive) | 43.7 µM (inactive) | 79.3 µM (inactive) | 28.8 µM (inactive)
Cc1cc(C)nc(NS(=O)(=O)c2ccc(Nc3c4ccccc4nc4ccc(C(=O)Nc5ccc(S(N)(=O)=O)cc5)cc34)cc2)n1 | > 100 µM (inactive) | > 100 µM (inactive) | > 100 µM (inactive) | > 100 µM (inactive) | > 100 µM (inactive) | > 100 µM (inactive) | > 100 µM (inactive) | > 100 µM (inactive) | 20 µM (inactive) | > 100 µM (inactive) | > 100 µM (inactive) | > 100 µM (inactive) | 69.3 µM (inactive) | > 100 µM (inactive) | > 100 µM (inactive) | 72.6 µM (inactive) | > 100 µM (inactive) | 78 µM (inactive) | 66.4 µM (inactive)
CC1OC(OC2C(O)COC(OC3C(C)OC(OC4C(OC(=O)[C@]56CCC(C)(C)C[C@@H]5C5=CCC7[C@@]8(C)C[C@H](O)[C@H](OC9OC(CO)C(O)C(OC%10OC(CO)C(O)C(O)C%10O)C9O)[C@@](C)(CO)[C@@H]8CC[C@@]7(C)[C@]5(C)CC6)OCC(O)C4O)C(O)C3OC3OCC(O)C(O)C3O)C2O)C(O)C(O)C1O (stereo not given in full) | 2.15 µM (inactive) | 5.41 µM (inactive) | 4.39 µM (inactive) | 7.1 µM (inactive) | 2.07 µM (inactive) | 6.76 µM (inactive) | 15.2 µM (inactive) | 17.3 µM (inactive) | 3.12 µM (inactive) | 10.1 µM (inactive) | 17.4 µM (inactive) | 9.93 µM (inactive) | 10.9 µM (inactive) | 11.4 µM (inactive) | 12.2 µM (inactive) | 4.45 µM (inactive) | 2 µM (inactive) | 3.96 µM (inactive) | 5.62 µM (inactive)
CC1C(C#N)(C#N)C(C#N)=C(N)C1(Cl)[N+](=O)[O-] (stereo not given) | 17.4 µM (inactive) | 11.3 µM (inactive) | 5.4 µM (inactive) | 16.7 µM (inactive) | 17.3 µM (inactive) | 3.08 µM (inactive) | 16.1 µM (inactive) | 17.2 µM (inactive) | 13.2 µM (inactive) | 5.71 µM (inactive) | – | 2.3 µM (inactive) | 16 µM (inactive) | 10 µM (inactive) | 14.9 µM (inactive) | 12.1 µM (inactive) | 8.18 µM (inactive) | 15.7 µM (inactive) | 17.1 µM (inactive)
CC/C=N\N1C(N)=C(C#N)C(C#N)(C#N)C1CC (stereo not given) | > 100 µM (inactive) | > 100 µM (inactive) | > 100 µM (inactive) | > 100 µM (inactive) | > 100 µM (inactive) | > 100 µM (inactive) | > 100 µM (inactive) | 36.5 µM (inactive) | > 100 µM (inactive) | > 100 µM (inactive) | – | > 100 µM (inactive) | 92 µM (inactive) | > 100 µM (inactive) | > 100 µM (inactive) | 53.1 µM (inactive) | > 100 µM (inactive) | > 100 µM (inactive) | 58.6 µM (inactive)
